This is an account of results in patent US7780978B2, “Oral pharmaceutical compositions and methods of using the same” (Childrens Hospital Los Angeles, priority 2003, dated 2010).

For data set [1] the following is noted: cited from earlier work.
A short description of data set [2]: Steady state plasma and tissue levels of 4-HPR in mice fed or gavaged LXS compositions vs capsule contents (HPLC). The class given is in vivo. The conditions noted are these: mice, 120, 250 and 560 mg/kg/day. The protocol:
FIG. 1. Comparison of 4-HPR in LXS matrix vs Capsule Formulation at 120 mg/kg/day. Cohorts of five mice were feed with 120 mg/kg/day of 4-HPR formulated in various LXS compositions, or 4-HPR expressed from capsules, mixed with mouse chow or Slim-Fast®, divided BID, ×4.5 days. Animals were sacrificed 3 hrs after the last dose and 4-HPR levels in plasma and tissues were assayed by HPLC. […] PLASMA: G1 vs capsule, P=0.006; LYM-X 5.59 vs capsule, P=0.06; LIVER: G1 vs capsule, P=0.013; LYM-X 5.59 vs capsule, P=0.045; LUNGS: G1 vs capsule, P=0.028; G2 vs capsule, P=0.05; KIDNEY: G1 vs capsule, P=0.007; LYM-X 5.59 vs capsule, P=0.06; BRAIN: G1 vs capsule, P=0.01; LYM-X 5.58 vs capsule, P=0.02. Statistical analysis by Student's t-test. Columns, in each set of columns, in sequence from left to right, represent LYM-X 5.57, LYM-X 5.58, LYM-X 5.60, LYM-X 5.59, Capsule Lot #R-6124, LYM-X 5.60 G1 (SLIMFAST™), and LYM-X 5.60 G2 (DI Water).
FIG. 2. Comparison of 4-HPR in LXS™ matrix vs Capsule Formulation at 250 mg/kg/day. […]
To test this hypothesis, we had various LXS™ compositions of 4-HPR prepared that varied in the LPC:MG:FA ratios of the LXS™ matrix. We then feed mice with equal doses of 4-HPR in the LXS™ compositions, or expressed as a slurry from the current oral 4-HPR capsules. […]

Take `CC1=C(/C=C/C(C)=C/C=C/C(C)=C/C(=O)Nc2ccc(O)cc2)C(C)(C)CCC1` [Fenretinide, all-trans-N-(4-hydroxyphenyl)retinamide]: the “solubility in aqueous solution” value in data set [1] was “minimally soluble”. Also, the “dose dependence of 4-HPR plasma and tissue levels” value in data set [2] is given as “dose-dependent”.
